In PubChem BioAssay AID248 (DTP/NCI, 2004):
“And” between values parts separate entries of the source, which are not always exact repeats. Equal values may be shown once. Toxic doses and inconclusive results are not listed. No stated cut-off is given here; in the data, active means T/C of 150% or more; inactive means T/C below 125%.

Tested on: L1210 leukemia ip in BDF1 mice, survival T/C
Assay: NCI In Vivo Anticancer Drug Screen. Data for tumor model L1210 Leukemia (intraperitoneal) in B6D2F1 (BDF1) mice
Conditions: endpoint: mean survival time, higher = longer survival
Outline: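 Each compound was tested against a transplantable tumor grown in mice. The endpoint was survival, with treated animals benchmarked against vehicle controls as a simple ratio.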

[1] = dose: 100.0 mg/kg/injection, schedule: Q01DX009 (ip), vehicle: Klucel (hydroxypropylcellulose) (HPC)
[2] = dose: 200.0 mg/kg/injection, schedule: Q01DX001 (ip), vehicle: saline
[3] = dose: 400.0 mg/kg/injection, schedule: Q01DX001 (ip), vehicle: saline
[4] = dose: 25.0 mg/kg/injection, schedule: Q04DX003 (ip), vehicle: saline
[5] = dose: 50.0 mg/kg/injection, schedule: Q04DX003 (ip), vehicle: saline

Measured: T/C

CCCc1nnn(S(=O)(=O)c2ccc([N+](=O)[O-])cc2)c1CCC
inactive: dose: 177.0 mg/kg/injection, schedule: Q01DX001 (ip), vehicle: other 88 % of control | dose: 266.0 mg/kg/injection, schedule: Q01DX001 (ip), vehicle: other 91 % of control | dose: 400.0 mg/kg/injection, schedule: Q01DX001 (ip), vehicle: other 96 % of control | dose: 600.0 mg/kg/injection, schedule: Q01DX001 (ip), vehicle: other 88 % of control

CN(C)c1ccnc(SCc2ccc(Cl)cc2Cl)n1
inactive: dose: 25.0 mg/kg/injection, schedule: Q01DX Z (ip), vehicle: methylcellulose (MC) 92 % of control | dose: 50.0 mg/kg/injection, schedule: Q01DX Z (ip), vehicle: methylcellulose (MC) 94 % of control

CCC(=O)C1(c2ccccc2)CCNCC1
inactive: dose: 25.0 mg/kg/injection, schedule: Q01DX009 (ip), vehicle: Klucel (hydroxypropylcellulose) (HPC) 102 % of control | dose: 50.0 mg/kg/injection, schedule: Q01DX009 (ip), vehicle: Klucel (hydroxypropylcellulose) (HPC) 106 % of control | [1] 98 % of control and 118 % of control | dose: 200.0 mg/kg/injection, schedule: Q04DX002 (ip), vehicle: Klucel (hydroxypropylcellulose) (HPC) 106 % of control

NC(Cc1c[nH]c2ccc(O)cc12)C(=O)O (configuration not stated)
inactive: dose: 100.0 mg/kg/injection, schedule: Q01DX001 (ip), vehicle: carboxymethylcellulose (CMC) 95 % of control | dose: 200.0 mg/kg/injection, schedule: Q01DX001 (ip), vehicle: carboxymethylcellulose (CMC) 102 % of control | dose: 400.0 mg/kg/injection, schedule: Q01DX001 (ip), vehicle: carboxymethylcellulose (CMC) 100 % of control

CCCCC1(C)CCC(=O)O1 (configuration not stated)
inactive: dose: 66.0 mg/kg/injection, schedule: Q01DX001 (ip), vehicle: Klucel (hydroxypropylcellulose) (HPC) 101 % of control | dose: 100.0 mg/kg/injection, schedule: Q01DX001 (ip), vehicle: Klucel (hydroxypropylcellulose) (HPC) 95 % of control | dose: 150.0 mg/kg/injection, schedule: Q01DX001 (ip), vehicle: Klucel (hydroxypropylcellulose) (HPC) 96 % of control | [2] 113 % of control | [3] 91 % of control

O=c1/c(=C\c2ccccc2)sc2n1CCN=2
inactive: dose: 100.0 mg/kg/injection, schedule: Q01DX001 (ip), vehicle: saline 89 % of control | [2] 92 % of control | [3] 101 % of control

NCc1ccccc1F
inactive: dose: 100.0 mg/kg/injection, schedule: Q01DX009 (ip), vehicle: saline 100 % of control | dose: 100.0 mg/kg/injection, schedule: Q04DX003 (ip), vehicle: saline 107 % of control | dose: 200.0 mg/kg/injection, schedule: Q01DX009 (ip), vehicle: saline 90 % of control | dose: 200.0 mg/kg/injection, schedule: Q04DX003 (ip), vehicle: saline 100 % of control | dose: 400.0 mg/kg/injection, schedule: Q04DX003 (ip), vehicle: saline 102 % of control

C=C1C(=O)OC2C1C(O)CC(C)(O)C1CC=C(C)C21 (configuration not stated)
inactive: dose: 100.0 mg/kg/injection, schedule: Q04DX002 (ip), vehicle: saline 102 % of control | dose: 200.0 mg/kg/injection, schedule: Q04DX002 (ip), vehicle: saline 102 % of control | dose: 400.0 mg/kg/injection, schedule: Q04DX002 (ip), vehicle: saline 94 % of control

COc1ccc(-c2cc(C(=O)O)c3cc4ccccc4cc3n2)cc1Br
inactive: [1] 107 % of control | dose: 200.0 mg/kg/injection, schedule: Q01DX009 (ip), vehicle: Klucel (hydroxypropylcellulose) (HPC) 93 % of control | dose: 400.0 mg/kg/injection, schedule: Q01DX009 (ip), vehicle: Klucel (hydroxypropylcellulose) (HPC) 105 % of control

CC(=O)OC(C(C)=O)C(C)=O.CC(=O)OC(C(C)=O)C(C)=O.[Cu]
inactive: dose: 12.0 mg/kg/injection, schedule: Q01DX001 (ip), vehicle: saline 93 % of control | dose: 12.0 mg/kg/injection, schedule: Q04DX003 (ip), vehicle: saline 96 % of control | dose: 25.0 mg/kg/injection, schedule: Q01DX001 (ip), vehicle: saline 95 % of control | [4] 96 % of control | dose: 50.0 mg/kg/injection, schedule: Q01DX001 (ip), vehicle: saline 101 % of control | [5] 103 % of control

Br/C=C/C[N+]12CN3CN(CN(C3)C1)C2
inactive: dose: 12.5 mg/kg/injection, schedule: Q01DX009 (ip), vehicle: saline 95 % of control | dose: 12.5 mg/kg/injection, schedule: Q04DX003 (ip), vehicle: saline 101 % of control | dose: 25.0 mg/kg/injection, schedule: Q01DX009 (ip), vehicle: saline 101 % of control | [4] 102 % of control | dose: 50.0 mg/kg/injection, schedule: Q01DX009 (ip), vehicle: saline 96 % of control | [5] 98 % of control

OCC(CO)(CCl)CCl
inactive: dose: 100.0 mg/kg/injection, schedule: Q01DX009 (ip), vehicle: saline with Tween-80 103 % of control | dose: 200.0 mg/kg/injection, schedule: Q01DX009 (ip), vehicle: saline with Tween-80 103 % of control | dose: 400.0 mg/kg/injection, schedule: Q01DX009 (ip), vehicle: saline with Tween-80 96 % of control
